Source: patent US8519128B2, “Pyripyropene derivatives having an ACAT2-inhibiting activity” (The Kitasato Institute, priority 2007, dated 2013)
pIC50: −log10 of the molar value. Where two headings read alike, the source gives them in different places.

Columns and labels:
[1] = target: T1, ACAT 2 (Mus musculus, UniProt O88908); assay: ACAT-inhibiting activity, mouse liver microsome membrane fraction, [14C]oleoyl-CoA; format: biochemical; conditions: for Specific activity: (inhibitory activity of test compound)/(inhibitory activity of pyripyropene A): relative to pyripyropene A
T1 construct: The source of ACAT 2 enzyme used was a membrane fraction derived from mouse liver microsome; from tissue; host or cells: mouse liver (microsome fraction)
T1 sequence (O88908 1-525): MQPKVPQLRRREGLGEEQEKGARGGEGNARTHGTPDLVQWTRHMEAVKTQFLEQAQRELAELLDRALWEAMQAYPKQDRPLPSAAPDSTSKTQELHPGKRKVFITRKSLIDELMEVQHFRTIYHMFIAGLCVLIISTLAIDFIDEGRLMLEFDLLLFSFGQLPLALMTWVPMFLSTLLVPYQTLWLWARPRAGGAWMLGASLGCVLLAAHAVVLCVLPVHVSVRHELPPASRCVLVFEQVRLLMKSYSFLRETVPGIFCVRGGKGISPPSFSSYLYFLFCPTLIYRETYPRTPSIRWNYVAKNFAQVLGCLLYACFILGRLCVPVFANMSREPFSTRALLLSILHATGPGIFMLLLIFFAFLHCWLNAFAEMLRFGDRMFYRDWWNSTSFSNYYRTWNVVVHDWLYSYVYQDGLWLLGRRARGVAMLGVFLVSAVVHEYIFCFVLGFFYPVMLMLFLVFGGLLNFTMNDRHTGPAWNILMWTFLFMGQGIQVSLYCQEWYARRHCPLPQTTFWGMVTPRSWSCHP
Procedure, shortened: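 Enzyme source: mouse liver microsomal membrane fraction (100000×g pellet) at 5 mg/ml protein in 50 mM Tris-HCl pH 7.8, 1 mM EDTA, 1 mM PMSF; substrate [14C]oleoyl-CoA. Chloroform-extracted lipids resolved by silica TLC in hexane/diethyl ether/acetic acid (70:30:1).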

[2] = test system: apolipoprotein E-deficient mice; assay: Total plasma cholesterol after 14 days of daily oral administration, high-fat feed; format: in vivo; conditions: day 14, day 0 taken as 100%, control 212.2%
Protocol: Ten-week old apolipoprotein E-deficient mice (males, purchased from Jackson Laboratories) were kept under cycles of artificial light (day) for 12 hours and dark (night) for 12 hours by appropriately feeding a standard high-fat feed (D12079B, Research Diet). Before starting a test for each test compound, 100 μL of blood were collected from the caudal vein of each animal to measure the total cholesterol concentration in plasma using a commercially available kit (Determiner TC 555, Kyowa Medex). […] The test compound was orally administered daily at the start of the artificial light cycle of each day.
Blood was collected at the start of the artificial light cycle on day 14 of administration of the test compound to measure the total plasma cholesterol. The total plasma cholesterol before administration of the test compound (on day 0) was taken as 100%, and the percent increase in total plasma cholesterol on day 14 after administration of the test compound started was calculated.

[3] = mouse liver microsome, 5 minutes at 37° C.

CC(=O)OCC1(C)C2C[C@H](OC(=O)c3ccc(N)cc3)[C@@]3(C)Oc4cc(-c5cccnc5)oc(=O)c4[C@H](O)C3[C@@]2(C)CC[C@@H]1OC(C)=O (stereo partly shown) [PRD 032, 7-p-aminobenzoyl-7-deacetylpyripyropene A]
pIC50 [1, 3]: 6.00 to 7.00
Specific activity: (inhibitory activity of test compound)/(inhibitory activity of pyripyropene A) [1]: + (5 > specific activity > 1)

CC(=O)OCC1(C)C2C[C@H](OC(=O)CCCCO)[C@@]3(C)Oc4cc(-c5cccnc5)oc(=O)c4[C@H](O)C3[C@@]2(C)CC[C@@H]1OC(C)=O (stereo partly shown) [PRD 093, 7-O-5-hydroxypentanoyl-7-deacetylpyripyropene A]
pIC50 [1, 3]: 6.00 to 7.00
Specific activity: (inhibitory activity of test compound)/(inhibitory activity of pyripyropene A) [1]: + (5 > specific activity > 1)

CC(=O)OCC1(C)C2C[C@H](OC(=O)c3ccccc3Cl)[C@@]3(C)Oc4cc(-c5cccnc5)oc(=O)c4[C@H](O)C3[C@@]2(C)CC[C@@H]1OC(C)=O (stereo partly shown) [PRD 010, 7-o-chlorobenzoyl-7-deacetylpyripyropene A]
pIC50 [1, 3]: 7.00 to 8.00
Specific activity: (inhibitory activity of test compound)/(inhibitory activity of pyripyropene A) [1]: +++ (50 > specific activity > 10)

CCc1ccc(C(=O)O[C@H]2CC3C(C)(COC(C)=O)[C@@H](OC(C)=O)CC[C@]3(C)C3[C@@H](O)c4c(cc(-c5cccnc5)oc4=O)O[C@@]32C)cc1 (stereo partly shown) [PRD 025, 7-p-ethylbenzoyl-7-deacetylpyripyropene A]
Specific activity: (inhibitory activity of test compound)/(inhibitory activity of pyripyropene A) [1]: ++++ (100 > specific activity > 50)

CC12COC(c3ccccc3)O[C@H]1CC[C@@]1(C)C2C[C@H](OC(=O)c2ccc(Cl)cc2)[C@@]2(C)Oc3cc(-c4cccnc4)oc(=O)c3[C@H](O)C12 (stereo partly shown) [PRD 051, 1,11-O-benzylidene-7-O-p-chlorobenzoyl-1,7,11-trideacetylpyripyropene A]
pIC50 [1, 3]: 7.00 to 8.00
Specific activity: (inhibitory activity of test compound)/(inhibitory activity of pyripyropene A) [1]: ++ (10 > specific activity > 5)

COc1ccccc1C(=O)O[C@H]1CC2C3(C)COC(c4ccccc4)O[C@H]3CC[C@]2(C)C2[C@@H](O)c3c(cc(-c4cccnc4)oc3=O)O[C@@]21C (stereo partly shown) [PRD 042, 1,11-O-benzylidene-7-O-o-methoxybenzoyl-1,7,11-trideacetylpyripyropene A]
pIC50 [1, 3]: 7.00 to 8.00
Specific activity: (inhibitory activity of test compound)/(inhibitory activity of pyripyropene A) [1]: +++ (50 > specific activity > 10)

CC(=O)OCC1(C)C2C[C@H](OC(=O)c3ccc(Br)cc3F)[C@@]3(C)Oc4cc(-c5cccnc5)oc(=O)c4[C@H](O)C3[C@@]2(C)CC[C@@H]1OC(C)=O (stereo partly shown) [PRD 109, 7-O-p-bromo-o-fluorobenzoyl-7-deacetylpyripyropene A]
pIC50 [1, 3]: > 8.00
Specific activity: (inhibitory activity of test compound)/(inhibitory activity of pyripyropene A) [1]: +++ (50 > specific activity > 10)

CC12CO[Si](C(C)(C)C)(C(C)(C)C)O[C@H]1CC[C@@]1(C)C2C[C@H](OC(=O)c2ccc(C#N)cc2)[C@@]2(C)Oc3cc(-c4cccnc4)oc(=O)c3[C@H](O)C12 (stereo partly shown) [PRD 059, 7-O-p-cyanobenzoyl-1,11-O-(di-tert-butylsilylene)-1,7,11-trideacetylpyripyropene A]
pIC50 [1, 3]: 6.00 to 7.00
Specific activity: (inhibitory activity of test compound)/(inhibitory activity of pyripyropene A) [1]: + (5 > specific activity > 1)

COc1cccc(C(=O)O[C@H]2CC3C4(C)COC(c5ccccc5)O[C@H]4CC[C@]3(C)C3[C@@H](O)c4c(cc(-c5cccnc5)oc4=O)O[C@@]32C)c1 (stereo partly shown) [PRD 043, 1,11-O-benzylidene-7-O-m-methoxybenzoyl-1,7,11-trideacetylpyripyropene A]
pIC50 [1, 3]: 7.00 to 8.00
Specific activity: (inhibitory activity of test compound)/(inhibitory activity of pyripyropene A) [1]: +++ (50 > specific activity > 10)

CC(=O)OCC1(C)C2C[C@H](OC(=O)C3CCC(C)CC3)[C@@]3(C)Oc4cc(-c5cccnc5)oc(=O)c4[C@H](O)C3[C@@]2(C)CC[C@@H]1OC(C)=O (stereo partly drawn) [PRD 085, 7-O-4-trans-methylcyclohexanecarboxyl-7-deacetylpyripyropene A]
pIC50 [1, 3]: 7.00 to 8.00
Specific activity: (inhibitory activity of test compound)/(inhibitory activity of pyripyropene A) [1]: + (5 > specific activity > 1)

COc1ccc(C(=O)O[C@H]2CC3C(C)(COC(C)=O)[C@@H](OC(C)=O)CC[C@]3(C)C3[C@@H](O)c4c(cc(-c5cccnc5)oc4=O)O[C@@]32C)cc1 (stereo partly shown) [PRD 003, 7-p-methoxybenzoyl-7-deacetylpyripyropene A]
pIC50 [1, 3]: > 8.00
Specific activity: (inhibitory activity of test compound)/(inhibitory activity of pyripyropene A) [1]: +++ (50 > specific activity > 10)

COCOCC(=O)O[C@H]1CC2C(C)(COC(C)=O)[C@@H](OC(C)=O)CC[C@]2(C)C2[C@@H](O)c3c(cc(-c4cccnc4)oc3=O)O[C@@]21C (stereo partly shown) [PRD 106, 7-O-methoxymethoxyacetyl-7-deacetylpyripyropene A]
pIC50 [1]: 6.00 to 7.00
Specific activity: (inhibitory activity of test compound)/(inhibitory activity of pyripyropene A) [1]: + (5 > specific activity > 1)

CC(=O)OCC1(C)C2C[C@H](OC(=O)c3ccc(O)cc3)[C@@]3(C)Oc4cc(-c5cccnc5)oc(=O)c4[C@H](O)C3[C@@]2(C)CC[C@@H]1OC(C)=O (stereo partly shown) [PRD 031, 7-p-hydroxybenzoyl-7-deacetylpyripyropene A]
pIC50 [1, 3]: 6.00 to 7.00
Specific activity: (inhibitory activity of test compound)/(inhibitory activity of pyripyropene A) [1]: + (5 > specific activity > 1)

CC(=O)OCC1(C)C2C[C@H](OC(=O)c3cccc(Cl)c3)[C@@]3(C)Oc4cc(-c5cccnc5)oc(=O)c4[C@H](O)C3[C@@]2(C)CC[C@@H]1OC(C)=O (stereo partly shown) [PRD 011, 7-m-chlorobenzoyl-7-deacetylpyripyropene A]
pIC50 [1, 3]: 7.00 to 8.00
Specific activity: (inhibitory activity of test compound)/(inhibitory activity of pyripyropene A) [1]: +++ (50 > specific activity > 10)

CC12COC(c3ccccc3)O[C@H]1CC[C@@]1(C)C2C[C@H](OC(=O)c2ccc([N+](=O)[O-])cc2)[C@@]2(C)Oc3cc(-c4cccnc4)oc(=O)c3[C@H](O)C12 (stereo partly shown) [PRD 045, 1,11-O-benzylidene-7-O-p-nitrobenzoyl-1,7,11-trideacetylpyripyropene A]
pIC50 [1, 3]: 7.00 to 8.00
Specific activity: (inhibitory activity of test compound)/(inhibitory activity of pyripyropene A) [1]: ++ (10 > specific activity > 5)

CC(=O)OCC1(C)C2C[C@H](OC(=O)c3ccc4ccccc4c3)[C@@]3(C)Oc4cc(-c5cccnc5)oc(=O)c4[C@H](O)C3[C@@]2(C)CC[C@@H]1OC(C)=O (stereo partly shown) [PRD 037, 7-2-naphthoyl-7-deacetylpyripyropene A]
pIC50 [1, 3]: 6.00 to 7.00
Specific activity: (inhibitory activity of test compound)/(inhibitory activity of pyripyropene A) [1]: + (5 > specific activity > 1)

CC(=O)OCC1(C)C2C[C@H](OC(=O)c3ccc(Br)c(F)c3)[C@@]3(C)Oc4cc(-c5cccnc5)oc(=O)c4[C@H](O)C3[C@@]2(C)CC[C@@H]1OC(C)=O (stereo partly shown) [PRD 105, 7-O-p-bromo-m-fluorobenzoyl-7-deacetylpyripyropene A]
pIC50 [1, 3]: > 8.00
Specific activity: (inhibitory activity of test compound)/(inhibitory activity of pyripyropene A) [1]: +++ (50 > specific activity > 10)

CC(=O)OCC1(C)C2C[C@H](OC(=O)c3ccc(C#N)c(F)c3)[C@@]3(C)Oc4cc(-c5cccnc5)oc(=O)c4[C@H](O)C3[C@@]2(C)CC[C@@H]1OC(C)=O (stereo partly shown) [PRD 112, 7-O-p-cyano-m-fluorobenzoyl-7-deacetylpyripyropene A]
Specific activity: (inhibitory activity of test compound)/(inhibitory activity of pyripyropene A) [1]: +++ (50 > specific activity > 10)

CC(=O)OCC1(C)C2C[C@H](OC(=O)c3cccc(C#N)c3)[C@@]3(C)Oc4cc(-c5cccnc5)oc(=O)c4[C@H](O)C3[C@@]2(C)CC[C@@H]1OC(C)=O (stereo partly shown) [PRD 016, 7-m-cyanobenzoyl-7-deacetylpyripyropene A]
pIC50 [1, 3]: 7.00 to 8.00
Specific activity: (inhibitory activity of test compound)/(inhibitory activity of pyripyropene A) [1]: +++ (50 > specific activity > 10)

CC12COC(c3ccccc3)O[C@H]1CC[C@@]1(C)C2C[C@H](OC(=O)c2ccccc2Cl)[C@@]2(C)Oc3cc(-c4cccnc4)oc(=O)c3[C@H](O)C12 (stereo partly shown) [PRD 049, 1,11-O-benzylidene-7-O-o-chlorobenzoyl-1,7,11-trideacetylpyripyropene A]
pIC50 [1, 3]: 7.00 to 8.00
Specific activity: (inhibitory activity of test compound)/(inhibitory activity of pyripyropene A) [1]: +++ (50 > specific activity > 10)

CC(=O)OCC1(C)C(OC(C)=O)CCC2(C)C1CC(OC(C)=O)C1(C)Oc3cc(-c4cccnc4)oc(=O)c3C(O)C21 (stereo not shown) [Pyripyropene A, reference compound]
total plasma cholesterol at day 14 (% of day 0) ([2]; 10 mg/kg oral daily): 177.3%
total plasma cholesterol at day 14 (% of day 0) ([2]; 50 mg/kg oral daily): 174.0%
